Patent publication US20240269139A1, “COMPOUNDS FOR TARGETED PROTEIN DEGRADATION OF KINASES” (DANA-FARBER CANCER INSTITUTE, INC., priority 2020, published 2024)
Like-named read-outs stand apart in the source and are kept apart here.

Columns and labels:
Format in all cases: cell-based
[1] = molecular target: protein kinases (human kinome) (Homo sapiens, UniProt P53667); conditions: LIMK1 (P53667-1), experiment wp081
[2] = molecular target: protein kinases (human kinome) (Homo sapiens, UniProt P11802)
[3] = system: protein kinases (human kinome); conditions: for logFC MAPK8 (P45983-4): direction down; for logFC MAPK8: MAPK8 P45983-4
[4] = molecular target: protein kinases (human kinome) (Homo sapiens, UniProt O60307); conditions: experiment wp081
[5] = molecular target: protein kinases (human kinome) (Homo sapiens, UniProt Q16539)
[6] = molecular target: T1, protein kinases (human kinome) (Homo sapiens, UniProt O14965)
T1 sequence (O14965 1-403): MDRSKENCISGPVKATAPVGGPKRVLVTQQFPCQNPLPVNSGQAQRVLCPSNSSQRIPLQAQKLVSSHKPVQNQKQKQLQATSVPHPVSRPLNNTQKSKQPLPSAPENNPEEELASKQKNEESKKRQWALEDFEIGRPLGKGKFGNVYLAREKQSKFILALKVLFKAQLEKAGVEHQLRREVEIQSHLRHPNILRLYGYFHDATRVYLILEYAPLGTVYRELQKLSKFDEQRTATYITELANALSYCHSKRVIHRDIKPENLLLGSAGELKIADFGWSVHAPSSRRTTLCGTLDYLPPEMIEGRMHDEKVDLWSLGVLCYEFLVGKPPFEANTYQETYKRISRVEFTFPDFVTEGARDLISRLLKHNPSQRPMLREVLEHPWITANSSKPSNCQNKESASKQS

[7] = molecular target: protein kinases (human kinome) (Homo sapiens, UniProt P50613); conditions: for logFC: CDK7 (P50613) protein abundance, degrader vs DMSO, down; for logFC CDK7: CDK7 P50613, experiment wp104
[8] = molecular target: protein kinases (human kinome) (Homo sapiens, UniProt P45984); conditions: MAPK9 P45984-1, experiment wp104
[9] = molecular target: protein kinases (human kinome) (Homo sapiens, UniProt Q00534); conditions: for logFC CDK6: CDK6 (Q00534), direction down; for logFC of CDK6 (Q00534): down
[10] = molecular target: protein kinases (human kinome) (Homo sapiens, UniProt Q00535); conditions: for logFC of CDK5: Accession Q00535; for logFC CDK5 (Q00535): direction of change down
[11] = molecular target: protein kinases (human kinome) (Homo sapiens, UniProt P53779); conditions: for logFC MAPK10 (P53779): direction of change down; for logFC: MAPK10 (P53779), experiment wp104
[12] = molecular target: protein kinases (human kinome) (Homo sapiens, UniProt P24941)
[13] = molecular target: protein kinases (human kinome) (Homo sapiens, UniProt Q00537); conditions: for logFC of CDK17: Accession Q00537; for logFC CDK17 (Q00537): direction of change down
[14] = molecular target: protein kinases (human kinome) (Homo sapiens, UniProt P06493); conditions: CDK1 P06493
[15] = molecular target: protein kinases (human kinome) (Homo sapiens, UniProt P49759)

protein kinases (human kinome) (Homo sapiens, UniProt Q00537), sequence (Q00537 whole entry): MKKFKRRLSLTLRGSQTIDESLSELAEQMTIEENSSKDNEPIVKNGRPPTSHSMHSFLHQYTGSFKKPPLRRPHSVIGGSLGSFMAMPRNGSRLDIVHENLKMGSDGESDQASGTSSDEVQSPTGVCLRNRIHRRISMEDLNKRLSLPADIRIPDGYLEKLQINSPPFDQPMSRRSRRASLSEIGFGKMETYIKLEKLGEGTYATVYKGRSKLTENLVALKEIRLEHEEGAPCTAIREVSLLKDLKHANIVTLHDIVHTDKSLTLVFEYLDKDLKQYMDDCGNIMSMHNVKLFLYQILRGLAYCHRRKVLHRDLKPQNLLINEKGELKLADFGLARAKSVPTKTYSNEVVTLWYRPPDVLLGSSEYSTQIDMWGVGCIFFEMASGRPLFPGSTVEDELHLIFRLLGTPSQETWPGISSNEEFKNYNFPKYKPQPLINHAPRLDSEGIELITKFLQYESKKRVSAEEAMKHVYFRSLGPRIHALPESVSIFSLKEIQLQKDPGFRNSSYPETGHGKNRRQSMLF
protein kinases (human kinome) (Homo sapiens, UniProt P45984), sequence (P45984 whole entry): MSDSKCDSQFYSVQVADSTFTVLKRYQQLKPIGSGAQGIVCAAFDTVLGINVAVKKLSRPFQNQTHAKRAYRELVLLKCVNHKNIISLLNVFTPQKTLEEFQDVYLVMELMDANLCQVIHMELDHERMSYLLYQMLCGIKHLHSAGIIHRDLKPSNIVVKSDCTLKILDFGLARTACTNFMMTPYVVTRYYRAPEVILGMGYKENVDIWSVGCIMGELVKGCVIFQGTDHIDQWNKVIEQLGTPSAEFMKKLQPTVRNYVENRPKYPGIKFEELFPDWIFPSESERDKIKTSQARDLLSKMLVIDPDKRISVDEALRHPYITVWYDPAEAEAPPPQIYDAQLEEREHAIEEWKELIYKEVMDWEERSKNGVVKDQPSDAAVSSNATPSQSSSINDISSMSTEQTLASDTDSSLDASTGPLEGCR
protein kinases (human kinome) (Homo sapiens, UniProt Q00534), sequence (Q00534 whole entry): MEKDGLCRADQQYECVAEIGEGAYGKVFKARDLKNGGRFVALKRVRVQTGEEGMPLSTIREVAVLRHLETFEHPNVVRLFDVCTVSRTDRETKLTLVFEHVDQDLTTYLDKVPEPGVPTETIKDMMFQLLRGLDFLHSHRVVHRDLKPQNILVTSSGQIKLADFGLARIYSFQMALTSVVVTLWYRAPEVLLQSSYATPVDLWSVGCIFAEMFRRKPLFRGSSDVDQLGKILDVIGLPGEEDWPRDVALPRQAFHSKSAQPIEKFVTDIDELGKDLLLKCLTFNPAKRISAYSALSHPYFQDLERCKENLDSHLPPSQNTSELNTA
protein kinases (human kinome) (Homo sapiens, UniProt Q00535), sequence (Q00535 whole entry): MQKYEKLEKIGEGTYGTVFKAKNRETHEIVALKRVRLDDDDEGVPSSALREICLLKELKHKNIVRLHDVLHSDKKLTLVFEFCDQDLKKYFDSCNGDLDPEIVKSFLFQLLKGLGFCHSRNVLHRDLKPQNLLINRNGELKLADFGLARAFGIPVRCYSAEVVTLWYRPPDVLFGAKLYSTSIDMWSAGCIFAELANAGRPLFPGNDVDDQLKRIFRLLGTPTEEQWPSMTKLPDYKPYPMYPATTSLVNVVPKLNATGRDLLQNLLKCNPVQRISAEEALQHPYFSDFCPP
protein kinases (human kinome) (Homo sapiens, UniProt P50613), sequence (P50613 whole entry): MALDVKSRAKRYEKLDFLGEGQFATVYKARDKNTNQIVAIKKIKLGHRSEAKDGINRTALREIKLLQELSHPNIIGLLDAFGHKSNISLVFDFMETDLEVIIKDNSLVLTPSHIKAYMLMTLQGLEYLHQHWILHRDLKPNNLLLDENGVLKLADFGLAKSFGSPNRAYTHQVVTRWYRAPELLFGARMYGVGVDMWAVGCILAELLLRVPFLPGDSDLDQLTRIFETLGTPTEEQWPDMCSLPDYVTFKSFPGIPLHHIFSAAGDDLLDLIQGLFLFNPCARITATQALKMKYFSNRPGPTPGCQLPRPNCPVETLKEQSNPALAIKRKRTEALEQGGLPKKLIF
protein kinases (human kinome) (Homo sapiens, UniProt P11802), sequence (P11802 whole entry): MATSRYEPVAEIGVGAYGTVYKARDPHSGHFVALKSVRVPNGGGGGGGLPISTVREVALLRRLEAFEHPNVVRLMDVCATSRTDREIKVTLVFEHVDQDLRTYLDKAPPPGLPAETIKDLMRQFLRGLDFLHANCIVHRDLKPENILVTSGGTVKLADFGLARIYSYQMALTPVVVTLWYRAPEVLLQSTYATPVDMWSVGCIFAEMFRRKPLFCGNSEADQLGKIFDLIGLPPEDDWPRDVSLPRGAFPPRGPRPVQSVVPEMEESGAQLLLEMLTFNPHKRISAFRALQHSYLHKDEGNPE
protein kinases (human kinome) (Homo sapiens, UniProt P06493), sequence (P06493 whole entry): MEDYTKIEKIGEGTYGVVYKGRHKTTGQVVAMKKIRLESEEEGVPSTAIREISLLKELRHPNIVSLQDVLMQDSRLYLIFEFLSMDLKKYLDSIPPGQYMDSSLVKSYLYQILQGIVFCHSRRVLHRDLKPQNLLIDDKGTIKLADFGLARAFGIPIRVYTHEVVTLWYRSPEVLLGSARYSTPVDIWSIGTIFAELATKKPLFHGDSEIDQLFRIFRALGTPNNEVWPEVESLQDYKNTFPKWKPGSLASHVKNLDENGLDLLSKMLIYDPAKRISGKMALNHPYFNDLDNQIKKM
protein kinases (human kinome) (Homo sapiens, UniProt P53779), sequence (P53779 whole entry): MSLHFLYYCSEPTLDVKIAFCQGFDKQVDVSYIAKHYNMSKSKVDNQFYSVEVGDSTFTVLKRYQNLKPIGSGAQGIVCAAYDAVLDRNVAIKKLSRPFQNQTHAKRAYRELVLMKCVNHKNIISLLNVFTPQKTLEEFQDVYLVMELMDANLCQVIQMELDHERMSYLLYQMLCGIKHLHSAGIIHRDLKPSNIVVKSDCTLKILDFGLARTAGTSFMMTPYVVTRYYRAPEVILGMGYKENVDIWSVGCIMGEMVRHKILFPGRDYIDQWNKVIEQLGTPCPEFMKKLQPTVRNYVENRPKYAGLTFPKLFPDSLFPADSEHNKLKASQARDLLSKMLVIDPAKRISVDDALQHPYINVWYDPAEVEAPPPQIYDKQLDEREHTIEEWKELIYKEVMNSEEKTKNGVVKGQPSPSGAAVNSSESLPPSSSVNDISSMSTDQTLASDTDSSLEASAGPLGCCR
protein kinases (human kinome) (Homo sapiens, UniProt P53667), sequence (P53667 whole entry): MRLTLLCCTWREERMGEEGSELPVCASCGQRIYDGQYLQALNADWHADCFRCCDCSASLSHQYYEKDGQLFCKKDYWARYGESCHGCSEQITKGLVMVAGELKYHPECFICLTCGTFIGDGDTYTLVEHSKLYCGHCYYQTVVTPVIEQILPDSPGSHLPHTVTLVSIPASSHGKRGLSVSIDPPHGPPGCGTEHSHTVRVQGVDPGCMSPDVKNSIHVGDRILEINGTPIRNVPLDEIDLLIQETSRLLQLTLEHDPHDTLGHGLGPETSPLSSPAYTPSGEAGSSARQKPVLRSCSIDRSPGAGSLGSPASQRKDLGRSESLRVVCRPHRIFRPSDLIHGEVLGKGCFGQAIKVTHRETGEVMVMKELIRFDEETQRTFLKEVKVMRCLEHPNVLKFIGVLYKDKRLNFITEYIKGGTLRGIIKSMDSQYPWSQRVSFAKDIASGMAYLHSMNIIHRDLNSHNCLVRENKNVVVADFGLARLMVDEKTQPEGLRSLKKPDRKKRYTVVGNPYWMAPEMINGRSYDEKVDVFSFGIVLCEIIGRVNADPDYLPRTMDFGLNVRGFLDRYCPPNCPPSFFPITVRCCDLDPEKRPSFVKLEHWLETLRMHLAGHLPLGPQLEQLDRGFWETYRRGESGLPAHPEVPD
protein kinases (human kinome) (Homo sapiens, UniProt O60307), sequence (O60307 whole entry): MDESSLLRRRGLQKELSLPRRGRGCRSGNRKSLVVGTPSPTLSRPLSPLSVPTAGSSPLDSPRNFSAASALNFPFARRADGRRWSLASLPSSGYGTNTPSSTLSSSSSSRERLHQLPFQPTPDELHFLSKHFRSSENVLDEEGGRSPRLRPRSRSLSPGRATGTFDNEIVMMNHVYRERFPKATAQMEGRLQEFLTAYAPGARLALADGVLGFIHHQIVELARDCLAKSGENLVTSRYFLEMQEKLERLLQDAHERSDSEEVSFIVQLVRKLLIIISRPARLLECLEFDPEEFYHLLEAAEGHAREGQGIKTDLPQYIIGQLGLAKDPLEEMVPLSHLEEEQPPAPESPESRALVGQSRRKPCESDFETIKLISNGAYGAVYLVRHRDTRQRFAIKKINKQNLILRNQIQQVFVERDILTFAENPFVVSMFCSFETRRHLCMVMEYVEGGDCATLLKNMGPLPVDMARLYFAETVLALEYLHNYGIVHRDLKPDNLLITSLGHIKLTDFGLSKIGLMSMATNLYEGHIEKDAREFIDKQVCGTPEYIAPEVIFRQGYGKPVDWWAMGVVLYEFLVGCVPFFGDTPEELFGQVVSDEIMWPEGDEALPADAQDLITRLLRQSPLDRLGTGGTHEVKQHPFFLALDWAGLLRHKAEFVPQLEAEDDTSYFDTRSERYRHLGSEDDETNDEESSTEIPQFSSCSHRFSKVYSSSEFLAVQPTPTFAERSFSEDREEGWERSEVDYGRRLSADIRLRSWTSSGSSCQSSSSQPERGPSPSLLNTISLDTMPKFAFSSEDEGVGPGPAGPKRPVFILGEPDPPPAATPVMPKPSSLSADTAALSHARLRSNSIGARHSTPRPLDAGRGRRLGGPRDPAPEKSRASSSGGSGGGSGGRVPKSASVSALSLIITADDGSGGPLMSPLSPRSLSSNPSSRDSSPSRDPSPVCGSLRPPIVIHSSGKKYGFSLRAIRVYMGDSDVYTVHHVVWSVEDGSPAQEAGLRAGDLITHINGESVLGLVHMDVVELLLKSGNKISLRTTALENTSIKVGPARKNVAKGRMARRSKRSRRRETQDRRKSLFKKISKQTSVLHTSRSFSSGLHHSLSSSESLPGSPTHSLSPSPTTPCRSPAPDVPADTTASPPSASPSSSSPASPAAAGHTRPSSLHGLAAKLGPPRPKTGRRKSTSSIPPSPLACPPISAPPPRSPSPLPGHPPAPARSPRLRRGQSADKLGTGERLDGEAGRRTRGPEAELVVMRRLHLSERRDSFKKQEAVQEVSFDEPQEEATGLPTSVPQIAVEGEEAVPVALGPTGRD

CC(C)(C)c1cc(NC(=O)Nc2ccc(Oc3ccnc(C(=O)NCCOCCOCCNC(=O)CNc4cccc5c4C(=O)N(C4CCC(=O)NC4=O)C5=O)c3)cc2F)n(-c2ccc3ncccc3c2)n1 (centres unmarked) [TL13.178]
logFC LIMK1 ([1]; direction down): −0.3359
logFC LIMK1 ([1]; down): −0.3359
logFC CDK4 (P11802) ([2]; experiment wp081): −0.5762
logFC MAP3K20 (Q9NYL2-2) ([3]; Experiment wp081): −1.407
logFC MAPK14 ([3]; MAPK14, accession Q16539-2, experiment wp081, direction of change down): −0.3343
logFC MAPK14 ([3]; MAPK14 Q16539-2, experiment wp081): −0.3343
logFC MAP3K20 (Q9NYL2-2) ([3]; experiment wp081): −1.407
logFC MAST3 (O60307) ([4]; direction of change down): −0.4852
logFC MAST3 ([4]; protein MAST3 (O60307), down): −0.4852
logFC ([5]; MAPK14 (Q16539) protein abundance, degrader vs DMSO, down): −0.5659
logFC MAPK14 ([5]; MAPK14, accession Q16539, experiment wp081, direction of change down): −0.5659

NC(=O)c1c(F)cccc1Nc1nc(NC2CCN(S(=O)(=O)CCNC(=O)CCCCCCCCOc3cccc4c3C(=O)N(C3CCC(=O)NC3=O)C4=O)CC2)ncc1Br (centres unmarked) [TMX.01.160.1]
logFC AURKA (O14965) ([6]; experiment wp104, _0.25): −1.326
logFC AURKA (O14965) ([6]; experiment wp104, _1): −1.466
logFC CDK4 (P11802) ([2]; experiment wp104, _0.25): −0.5542
logFC CDK4 (P11802) ([2]; experiment wp104, _1): −0.7676
logFC ([7]; experiment suffix _0.25): −0.4941
logFC ([7]; experiment suffix _1): −0.5204
logFC CDK7 ([7]; _0.25): −0.4941
logFC CDK7 ([7]; _1): −0.5204
logFC ([8]; _0.25): −1.635
logFC MAPK9 ([8]; _0.25): −1.635
logFC ([8]; _1): −1.496
logFC MAPK9 ([8]; _1): −1.496
logFC MAPK8 (P45983-4) ([3]; Experiment wp104, _0.25): −0.3338
logFC MAPK8 (P45983-4) ([3]; Experiment wp104, _1): −0.476
logFC MAPK8 ([3]; experiment wp104, _0.25): −0.3338
logFC MAPK8 ([3]; experiment wp104, _1): −0.476
logFC CDK16 (Q00536-2) ([3]; experiment wp104, 0.25): −0.8646
logFC CDK16 (Q00536-2) ([3]; experiment wp104, 1): −0.6009
logFC CDK16 (Q00536-2) ([3]; experiment wp104, suffix _0.25): −0.8646
logFC CDK16 (Q00536-2) ([3]; experiment wp104, suffix _1): −0.6009
logFC CDK6 ([9]; experiment wp104, _0.25): −0.866
logFC CDK6 ([9]; experiment wp104, _1): −0.8425
logFC of CDK6 (Q00534) ([9]; Experiment wp104, _0.25): −0.866
logFC of CDK6 (Q00534) ([9]; Experiment wp104, _1): −0.8425
logFC of CDK5 ([10]; experiment wp104, suffix _0.25): −1.866
logFC of CDK5 ([10]; experiment wp104, suffix _1): −1.827
logFC CDK5 (Q00535) ([10]; experiment wp104, _0.25): −1.866
logFC CDK5 (Q00535) ([10]; experiment wp104, _1): −1.827
logFC MAPK10 (P53779) ([11]; Experiment wp104_TMX.01.160.1_0.25): −0.5743
logFC MAPK10 (P53779) ([11]; Experiment wp104_TMX.01.160.1_1): −0.5743
logFC ([11]; suffix _0.25): −0.5743
logFC ([11]; suffix _1): −0.5743
logFC CDK2 (P24941-1) ([12]; experiment wp104, _0.25): −1.024
logFC CDK2 (P24941-1) ([12]; experiment wp104, _0.25, direction of change down): −1.024
logFC CDK2 (P24941-1) ([12]; experiment wp104, _1): −0.9457
logFC CDK2 (P24941-1) ([12]; experiment wp104, _1, direction of change down): −0.9457
logFC of CDK17 ([13]; experiment wp104, suffix _0.25): −0.7788
logFC of CDK17 ([13]; experiment wp104, suffix _1): −0.6817
logFC CDK17 (Q00537) ([13]; experiment wp104, _0.25): −0.7788
logFC CDK17 (Q00537) ([13]; experiment wp104, _1): −0.6817
logFC ([14]; experiment wp104, 0.25): −0.7936
logFC CDK1 ([14]; experiment wp104, 0.25): −0.7936
logFC ([14]; experiment wp104, 1): −0.9413
logFC CDK1 ([14]; experiment wp104, 1): −0.9413

Cc1ncsc1-c1ccc([C@H](C)NC(=O)[C@@H]2C[C@@H](O)CN2C(=O)[C@@H](NC(=O)CCOCCOCCOCCN2CCC(C(=O)Nc3ncc(SCc4ncc(C(C)(C)C)o4)s3)CC2)C(C)(C)C)cc1 [ZZ.01.31B]
logFC ([3]; CDK9 (P50750-2) protein abundance, degrader vs DMSO, down): −0.837
logFC CDK9 (P50750-2) ([3]; Experiment wp195): −0.837
logFC CLK1 ([15]; CLK1 P49759, experiment wp195): −0.3482
logFC of CLK1 (P49759) ([15]; Experiment wp195): −0.3482
